Experiments:
[1] = target: T1, CD73 (Homo sapiens, UniProt P21589); assay: In vitro enzymatic activity against CD73 (malachite green test using soluble CD73); format: biochemical; settings: soluble CD73 36 ng/mL, 50 μM AMP, 30 minutes at 25° C.
T1 construct: purchased R&D systems 5795-EN-010
T1 sequence (P21589 27-547 limits assumed): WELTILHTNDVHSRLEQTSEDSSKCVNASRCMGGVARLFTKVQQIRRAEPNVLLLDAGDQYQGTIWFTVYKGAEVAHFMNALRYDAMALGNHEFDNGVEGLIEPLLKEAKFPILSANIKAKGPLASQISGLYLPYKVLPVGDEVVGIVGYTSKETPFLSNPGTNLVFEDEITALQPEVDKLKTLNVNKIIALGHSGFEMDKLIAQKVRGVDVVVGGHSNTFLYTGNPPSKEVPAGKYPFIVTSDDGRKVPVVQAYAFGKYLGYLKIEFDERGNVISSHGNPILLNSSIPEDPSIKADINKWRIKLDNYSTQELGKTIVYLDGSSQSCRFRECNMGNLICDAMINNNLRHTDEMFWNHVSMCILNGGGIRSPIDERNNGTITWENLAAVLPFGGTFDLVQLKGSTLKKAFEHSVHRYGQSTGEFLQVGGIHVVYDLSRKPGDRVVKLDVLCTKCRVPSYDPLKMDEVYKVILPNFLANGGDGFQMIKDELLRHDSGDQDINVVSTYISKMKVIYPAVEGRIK
Procedure: The malachite green test using soluble CD73, which is synthesized in vitro was used in the present invention to determine the characteristics of inhibitory activity of the compounds against CD73. The specific experimental procedures were as following:
1. The enzyme reaction in this experiment was carried out in 384-well plates, and CD73 (R&D systems #5795-EN-010) at a concentration of 36 ng/mL, the compounds at different concentrations and 50 μM AMP were incubated for 30 minutes at 25° C. in a 40 uL reaction system (consisting of 25 mM Tris pH 7.5, 5 mM MgCl2, and 0.005% Tween-20);
2. Then, 10 μL of malachite green solution (Sigma) was added to each well to terminate the reaction;
3. The concentration of resulting inorganic phosphate was determined according to the instructions of the reagent manufacturer;
4. The enzymatic activity of CD73 was calculated based on the concentration of the product, and then IC50 values were determined by non-linear regression analysis of the inhibition percentage of the compounds of the present invention at different concentrations.

[2] = target: T2, CD73 enzymatic activity expressed on the cell surface of MDA-MB-231 cells (Homo sapiens, UniProt P21589); assay: Inhibition of CD73 enzymatic activity on the cell surface (Cell Titer Glo (CTG) experiment), MDA-MB-231 cells; format: cell-based; settings: MDA-MB-231 cells endogenously expressing CD73, AMP, 37° C. for 2 hours, CTG readout; read-out: Cellular activity IC50
T2 construct: Human breast cancer cells MDA-MB-231 that endogenously express CD73 were used; host or cells: MDA-MB-231
T2 sequence (P21589 27-549): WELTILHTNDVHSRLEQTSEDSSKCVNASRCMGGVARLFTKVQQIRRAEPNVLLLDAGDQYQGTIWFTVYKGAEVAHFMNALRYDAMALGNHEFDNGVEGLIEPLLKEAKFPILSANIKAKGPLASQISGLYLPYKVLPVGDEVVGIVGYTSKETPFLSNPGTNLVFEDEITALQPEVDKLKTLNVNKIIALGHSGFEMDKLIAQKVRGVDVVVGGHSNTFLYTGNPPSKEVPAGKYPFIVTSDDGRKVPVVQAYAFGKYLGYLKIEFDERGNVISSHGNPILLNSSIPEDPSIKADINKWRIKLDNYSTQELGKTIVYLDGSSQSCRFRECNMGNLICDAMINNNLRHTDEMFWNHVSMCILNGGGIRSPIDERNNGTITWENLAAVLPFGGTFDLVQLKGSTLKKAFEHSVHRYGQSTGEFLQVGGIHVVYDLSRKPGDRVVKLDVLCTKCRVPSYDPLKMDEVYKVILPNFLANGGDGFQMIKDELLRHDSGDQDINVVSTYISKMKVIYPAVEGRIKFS
Procedure: Human breast cancer cells MDA-MB-231 that endogenously express CD73 were used in the present invention to evaluate the inhibition of the compound against the CD73 enzymatic activity expressed on the cell surface. The cells used were from the Cell Bank of the Chinese Academy of Sciences. The specific experimental procedures were as follows:
1. Before the test, MDA-MB231 cells were seeded to a 96-well plate at 20000 cells/well;
2. In RPMI1640, 10% fetal bovine serum (Gibco, 10099-141), placed in a 5% CO2 incubator at 37° C. overnight (the cells were washed three times by using a serum-free RPMI medium right before the test):
3. 50 μl of serum-free media containing the compounds at different concentrations were added to the cells and incubated for 15 minutes;
4. 25 μL of 1.2 mM AMP was added for incubation at 37° C. for 2 hours, 25 μL of supernatant was then collected from the cells and mix with 25 μL of 100 μM ATP, and then the concentration of AMP in the samples was determined by CTG (Promega, #G7573);
5. Then, a reduction ratio of the substrate AMP level in the cell culture supernatant collected after the reaction was quantitatively determined to evaluate the inhibitory effects of the examples of the present invention and the positive compounds against the CD73 enzymatic activity on the cell surface;
6. Finally, the concentration of the compound leading to half maximal inhibition of enzymatic activity (IC50) was determined using a four-parameter non-linear logistic model curve fit in Graphpad Prism.

| SMILES | IC50 [1] [nM] | IC50 [2] [nM] |
| --- | --- | --- |
| O=P(O)(O)CP(=O)(O)OC[C@H]1O[C@@H](n2ncc3c(N[C@H]4CCc5ccccc54)cc(Cl)nc32)[C@H](O)[C@@H]1O [Example 12, (((((2R,3S,4R,5R)-5-(6-chloro-4-(((S)-2,3-dihydro-1H-inden-1-yl)amino)-1H-pyrazolo[3,4-b]pyridin-1-yl)-3,4-dihydroxytetrahydrofuran-2-yl)methoxy)(hydroxy)phosphoryl)methyl)phosphonic acid] | 0.26 | 0.26 |
| O=P(O)(O)CP(=O)(O)OC[C@H]1O[C@@H](n2ncc3c(N[C@@H]4CCc5ccccc54)cc(Cl)nc32)[C@H](O)[C@@H]1O [Example 13, (((((2R,3S,4R,5R)-5-(6-chloro-4-(((R)-2,3-dihydro-1H-inden-1-yl)amino)-1H-pyrazolo[3,4-b]pyridin-1-yl)-3,4-dihydroxytetrahydrofuran-2-yl)methoxy)(hydroxy)phosphoryl)methyl)phosphonic acid] | 0.42 | 0.13 |
| CN(c1cc(Cl)nc2c1cnn2[C@@H]1O[C@H](COP(=O)(O)CP(=O)(O)O)[C@@H](O)[C@H]1O)[C@H]1CCc2ccccc21 [Example 14, (((((2R,3S,4R,5R)-5-(6-chloro-4-(((S)-2,3-dihydro-1H-inden-1-yl)(methyl)amino)-1H-pyrazolo[3,4-b]pyridin-1-yl)-3,4-dihydroxytetrahydrofuran-2-yl)methoxy)(hydroxy)phosphoryl)methyl)phosphonic acid] | 0.16 | 0.45 |
| CN(c1cc(Cl)nc2c1cnn2[C@@H]1O[C@H](COP(=O)(O)CP(=O)(O)O)[C@@H](O)[C@H]1O)[C@@H]1CCc2ccccc21 [Example 15, (((((2R,3S,4R,5R)-5-(6-chloro-4-(((R)-2,3-dihydro-1H-inden-1-yl)(methyl)amino)-1H-pyrazolo[3,4-b]pyridin-1-yl)-3,4-dihydroxytetrahydrofuran-2-yl)methoxy)(hydroxy)phosphoryl)methyl)phosphonic acid] | 0.97 | 0.121 |
| O=P(O)(O)CP(=O)(O)OC[C@H]1O[C@@H](n2ncc3c(N[C@@H]4CCc5cc(F)ccc54)cc(Cl)nc32)[C@H](O)[C@@H]1O [Example 16, (((((2R,3S,4R,5R)-5-(6-chloro-4-(((R)-5-fluoro-2,3-dihydro-1H-inden-1-yl)amino)-1H-pyrazolo[3,4-b]pyridin-1-yl)-3,4-dihydroxytetrahydrofuran-2-yl)methoxy)(hydroxy)phosphoryl)methyl)phosphonic acid] | 0.34 | 0.176 |
| O=P(O)(O)CP(=O)(O)OC[C@H]1O[C@@H](n2ncc3c(N[C@@H]4CCc5ccc(F)cc54)cc(Cl)nc32)[C@H](O)[C@@H]1O [Example 17, (((((2R,3S,4R,5R)-5-(6-chloro-4-(((R)-6-fluoro-2,3-dihydro-1H-inden-1-yl)amino)-1H-pyrazolo[3,4-b]pyridin-1-yl)-3,4-dihydroxytetrahydrofuran-2-yl)methoxy)(hydroxy)phosphoryl)methyl)phosphonic acid] | 0.32 | 0.14 |
| O=P(O)(O)CP(=O)(O)OC[C@H]1O[C@@H](n2ncc3c(N[C@@H]4CCc5cc(Cl)ccc54)cc(Cl)nc32)[C@H](O)[C@@H]1O [Example 18, (((((2R,3S,4R,5R)-5-(6-chloro-4-(((R)-5-chloro-2,3-dihydro-1H-inden-1-yl)amino)-1H-pyrazolo[3,4-b]pyridin-1-yl)-3,4-dihydroxytetrahydrofuran-2-yl)methoxy)(hydroxy)phosphoryl)methyl)phosphonic acid] | 1.67 | 0.24 |
| O=P(O)(O)CP(=O)(O)OC[C@H]1O[C@@H](n2ncc3c(N[C@@H]4CCc5cc(C(F)(F)F)ccc54)cc(Cl)nc32)[C@H](O)[C@@H]1O [Example 19, (((((2R,3S,4R,5R)-5-(6-chloro-4-(((R)-5-(trifluoromethyl)-2,3-dihydro-1H-inden-1-yl)amino)-1H-pyrazolo[3,4-b]pyridin-1-yl)-3,4-dihydroxytetrahydrofuran-2-yl)methoxy)(hydroxy)phosphoryl)methyl)phosphonic acid] | 11.8 | 0.54 |
| O=P(O)(O)CP(=O)(O)OC[C@H]1O[C@@H](n2ncc3c(N[C@@H]4CCc5ccc(C(F)(F)F)cc54)cc(Cl)nc32)[C@H](O)[C@@H]1O [Example 20, (((((2R,3S,4R,5R)-5-(6-chloro-4-(((R)-6-(trifluoromethyl)-2,3-dihydro-1H-inden-1-yl)amino)-1H-pyrazolo[3,4-b]pyridin-1-yl)-3,4-dihydroxytetrahydrofuran-2-yl)methoxy)(hydroxy)phosphoryl)methyl)phosphonic acid] | 0.71 | 0.27 |
| O=P(O)(O)CP(=O)(O)OC[C@H]1O[C@@H](n2ncc3c(N[C@@H]4CCc5cc(F)cc(F)c54)cc(Cl)nc32)[C@H](O)[C@@H]1O [Example 21, (((((2R,3S,4R,5R)-5-(6-chloro-4-(((R)-5,7-difluoro-2,3-dihydro-1H-inden-1-yl)amino)-1H-pyrazolo[3,4-b]pyridin-1-yl)-3,4-dihydroxytetrahydrofuran-2-yl)methoxy)(hydroxy)phosphoryl)methyl)phosphonic acid] | 0.21 | 0.21 |
| O=P(O)(O)CP(=O)(O)OC[C@H]1O[C@@H](n2ncc3c(N[C@@H]4CCc5cc(F)c(F)cc54)cc(Cl)nc32)[C@H](O)[C@@H]1O [Example 22, (((((2R,3S,4R,5R)-5-(6-chloro-4-(((R)-5,6-difluoro-2,3-dihydro-1H-inden-1-yl)amino)-1H-pyrazolo[3,4-b]pyridin-1-yl)-3,4-dihydroxytetrahydrofuran-2-yl)methoxy)(hydroxy)phosphoryl)methyl)phosphonic acid] | 0.26 | 0.151 |
| Cc1cc(N[C@@H]2CCc3cc(F)cc(F)c32)c2cnn([C@@H]3O[C@H](COP(=O)(O)CP(=O)(O)O)[C@@H](O)[C@H]3O)c2n1 [Example 23, (((((2R,3S,4R,5R)-5-(4-(((R)-5,7-difluoro-2,3-dihydro-1H-inden-1-yl)amino)-6-methyl-1H-pyrazolo[3,4-b]pyridin-1-yl)-3,4-dihydroxytetrahydrofuran-2-yl)methoxy)(hydroxy)phosphoryl)methyl)phosphonic acid] | 0.89 | 0.245 |
| Cc1cc(N[C@@H]2CCc3cc(F)ccc32)c2cnn([C@@H]3O[C@H](COP(=O)(O)CP(=O)(O)O)[C@@H](O)[C@H]3O)c2n1 [Example 24, (((((2R,3S,4R,5R)-5-(4-(((R)-5-fluoro-2,3-dihydro-1H-inden-1-yl)amino)-6-methyl-1H-pyrazolo[3,4-b]pyridin-1-yl)-3,4-dihydroxytetrhydrofuran-2-yl)methoxy)(hydroxy)phosphoryl)methyl)phosphonic acid] | 1.26 | 0.256 |
